Source: patent publication US20080051456A1, “Glycine Reuptake Inhibitors for Treatment of Drug Dependence” (priority 2005, published 2008)
Several values for one entry are separate records, joined by “and”; a condition that tells them apart may be missing. Identical values can stand only once.

How the values were obtained:
[1] = target: T1, GlyT2 protein (Homo sapiens, UniProt Q9Y345); details: relative to main action on GlyT1; cited from earlier work
T1 sequence (Q9Y345 1-797): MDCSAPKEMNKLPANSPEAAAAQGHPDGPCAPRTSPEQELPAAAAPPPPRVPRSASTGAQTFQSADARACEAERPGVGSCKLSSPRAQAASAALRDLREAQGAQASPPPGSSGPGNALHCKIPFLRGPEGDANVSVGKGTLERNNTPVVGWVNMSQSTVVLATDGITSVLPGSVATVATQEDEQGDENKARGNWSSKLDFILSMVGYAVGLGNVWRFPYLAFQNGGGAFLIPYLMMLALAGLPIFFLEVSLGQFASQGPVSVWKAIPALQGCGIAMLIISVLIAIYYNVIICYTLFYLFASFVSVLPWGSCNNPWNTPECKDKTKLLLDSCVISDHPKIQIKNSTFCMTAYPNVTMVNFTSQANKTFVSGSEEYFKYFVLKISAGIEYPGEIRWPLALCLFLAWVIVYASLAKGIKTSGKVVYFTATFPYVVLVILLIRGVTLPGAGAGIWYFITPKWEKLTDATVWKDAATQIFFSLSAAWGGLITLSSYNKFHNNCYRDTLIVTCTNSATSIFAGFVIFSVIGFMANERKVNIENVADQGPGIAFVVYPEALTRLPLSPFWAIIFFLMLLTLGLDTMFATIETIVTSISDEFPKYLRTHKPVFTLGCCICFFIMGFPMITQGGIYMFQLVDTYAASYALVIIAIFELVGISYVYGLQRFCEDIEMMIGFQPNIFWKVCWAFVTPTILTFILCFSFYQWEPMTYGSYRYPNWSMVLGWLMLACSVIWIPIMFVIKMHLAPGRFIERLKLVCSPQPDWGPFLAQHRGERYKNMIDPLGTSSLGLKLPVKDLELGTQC

[2] = system: striatal extracellular glycine levels; details: 6 mg/kg i.p., rat approx. 500 g; stated as expected; cited from earlier work
[3] = system: ethanol high preferring male Wistar rats; experiment: Limited access free choice ethanol (6% v/v) / water drinking in ethanol high preferring rats
Procedure: Male adult Wistar rats weighing 250-300 g (approx. 50 days old) were supplied by Beekay (Stockholm, Sweden). The animals were housed in groups of four at a constant cage temperature (25° C.) and humidity (65° C.). The animals were allowed to adapt for one week to the novel environment before any experiment (Screening for ethanol preference) was performed. They were kept under regular light-dark conditions (light on at 07:00 a.m. and off at 19:00 p.m.) with free access to standard rat feed (Beekay feed) and tap water.
Rats had continuous access to a bottle of ethanol solution in addition to the water bottle. […] The animals were subsequently housed individually in plastic cages. They had continuous access to two bottles containing either tap water or 6% ethanol solution. […] Water and ethanol intake were measured over a 6-7-week period. The amount (g) of ethanol solution consumed, in percent of total fluid intake (g), was used as an index of ethanol preference. Rats were classified as low-(<20% ethanol), medium (20%-60% ethanol), or high-(>60% ethanol) preferring based on their ethanol preference.
Ethanol (AB Svensk sprit) was dissolved (2-4-6% v/v) with regular tap water and presented in regular plastic 300 ml bottles. […] NaCl (0.9%) was used as vehicle.
To adapt to the experimental procedure, approx. 80 days old ethanol high preferring male Wistar rats were limited to drink both ethanol (6% v/v) and water for only three hours/day during one week, so called limited access (limited access) drinking. Thereafter, daily MTHMPNMglycine or vehicle administration started. MTHMPNMglycine or vehicle was injected i.p. and the rats were allowed to rest for approx. 40 min after which they were presented a choice between ethanol and water and allowed to drink for 3 hours. In the first experiment rats were challenged with MTHMPNMglycine (6 mg/kg) or vehicle for two weeks and alcohol and water intake were monitored. The experiment was preceded and ended by a limited access period.
Again the rats were treated with MTHMPNMglycine (6 mg/kg) or vehicle for 13 days. In addition, the rats were thereafter exposed to a two-week period of alcohol deprivation (limited access), during which they were allowed to drink only water 3 hours per day. After the limited access period the rats were again challenged with MTHMPNMglycine or vehicle and re-exposed to ethanol for an additional time-period of 13 days. […] The rats were presented to the water and ethanol (6% v/v) bottles approx. 40 minutes after drug administration.
The ethanol and water consumption data were statistically analysed using Analysis of variance (ANOVA) for repeated measures followed by post hoc analysis by means of Fisher's Protected Least Significant Difference (PLSD) test. Paired t-test was used for dependent comparisons between values obtained at different time-points. All values are expressed as means ±SEM. A probability value (P) less than 0.05 was considered statistically significant.
A new set of male ethanol high-preferring Wistar rats were injected i.p. with either MTHMPNMglycine or vehicle. Approx. 40 minutes after injection all rats were exposed to a free choice between ethanol (6% v/v) and water for 3 hours. First all rats received MTHMPNMglycine (6 mg/kg) or vehicle daily during 13 days.

[4] = oral administration
[5] = 10 mg/kg, dose-finding pilot experiments

Structure (SMILES): CCCOc1ccc(C2=CC3(CCN(CC(=O)O)CC3)Oc3ccccc32)cc1F [FPPSBPAA, 4-[3-fluoro-4-propoxyphenyl]-spiro[2H-1-benzopyran-2,4′-piperidine]-1′-acetic acid]
- action on the GlyT2 protein [1]: negligible action

Structure (SMILES): COc1ccc2c(c1)CC[C@H](CN(C)CC(=O)O)[C@@H]2c1ccccc1 [MTHMPNMglycine]
- increase of striatal extracellular glycine levels [2]: 50-80% and 50-70%
- total fluid intake vs vehicle ([3]; Experiment 1, 6 mg/kg i.p. daily, day 4-14, group effect p=0.0004, groups also differed on day 1-3): significantly reduced
- ethanol intake vs vehicle ([3]; Experiment 1, 6 mg/kg i.p. daily, day 4-14, group effect p=0.0125): significantly reduced
- ethanol preference vs vehicle ([3]; Experiment 1, 6 mg/kg i.p. daily, day 4-14, group effect p=0.1899): no group effect
- water intake vs vehicle ([3]; Experiment 1, 6 mg/kg i.p. daily, day 4-14, group effect p=0.8713): no difference
- ethanol preference, difference vs vehicle ([3]; Experiment 2, 1.5 mg/kg i.p., day 28-29, group effect p=0.2117): totally abolished
- ethanol intake, difference vs vehicle ([3]; Experiment 2, 1.5 mg/kg i.p., day 28-29, group effect p=0.8614): totally abolished
- ethanol preference vs vehicle ([3]; Experiment 2, 3 mg/kg i.p., day 24-27, group effect p=0.1555): appeared to decrease the difference between the groups
- ethanol intake vs vehicle ([3]; Experiment 2, 3 mg/kg i.p., day 24-27, group effect p=0.2973): difference between the groups was reduced
- treatment time after which the ethanol intake reducing effect was most pronounced ([3]; Experiment 2, 6 mg/kg i.p.): 4 to 6 days
- water intake vs vehicle ([3]; Experiment 2, 6 mg/kg i.p., after alcohol deprivation, day 17-23, group effect p=0.0659): tendency to increase their water intake
- ethanol preference vs vehicle ([3]; Experiment 2, 6 mg/kg i.p., after approx. one week, day 11-16, group effect p<0.0001): significant decrease
- total fluid intake vs vehicle ([3]; Experiment 2, 6 mg/kg i.p., after four days of treatment, day 8-16, group effect p<0.0001): significantly lowered
- ethanol intake vs vehicle ([3]; Experiment 2, 6 mg/kg i.p., after one week of treatment, day 11-17, group effect p=0.0001): even more pronounced
- ethanol intake vs vehicle ([3]; Experiment 2, 6 mg/kg i.p., after two weeks of alcohol deprivation, day 17-23, group effect p=0.0348): remained significantly reduced
- ethanol preference vs vehicle ([3]; Experiment 2, 6 mg/kg i.p., after two weeks of alcohol deprivation, day 17-23, group effect p=0.0572): remained reduced, although not significantly
- total fluid intake after vs before reintroducing ethanol choice (within group) ([3]; Experiment 2, 6 mg/kg i.p., day 14 vs. day 19, paired t-test p<0.0001): significantly increased
- ethanol intake after vs before alcohol deprivation period (within group) ([3]; Experiment 2, 6 mg/kg i.p., day 14 vs. day 19, paired t-test p=0.0135): significantly increased
- water intake after vs before alcohol deprivation period (within group) ([3]; Experiment 2, 6 mg/kg i.p., day 14 vs. day 19, paired t-test p=0.0188): significantly increased their water intake
- ethanol intake vs vehicle ([3]; Experiment 2, 6 mg/kg i.p., first 6 days of treatment, day 4-10, group effect p=0.0008): significantly reduced
- ethanol preference vs vehicle ([3]; Experiment 2, 6 mg/kg i.p., first 6 days, day 4-10, group effect p=0.1300): no significant difference
- water intake vs vehicle ([3]; Experiment 2, 6 mg/kg i.p., first part of the experiment (before alcohol deprivation)): not significantly different
- total fluid intake vs vehicle ([3]; Experiment 2, after the alcohol deprivation (limited access) period): no difference
- action on the GlyT2 protein [1]: negligible action
- duration of behavioral changes [5]: 10 to 15 min
- incidence of behavioral changes [5]: one out of ten
- gross behavior at the doses used in the study (1.5-6 mg/kg i.p., rats): behaviorally unaffected
- mean body weight vs vehicle (during the limited access/experimental time): significant lowered
- oral dose that induced visible behavioral changes [4]: ≥ 13.5 mg/kg
